Experimental data from ChEMBL document CHEMBL4152347 (J Med Chem, 2018).

What was measured:
Conditions in all cases: in vivo
[1] = Drug metabolism in beagle dog plasma assessed as 4-((1R,3aS,5aR,5bR,7aR,11aS,11bR,13aR,13bR)-3a-amino-5a,5b,8,8,11a-pentamethyl-1-(prop-1-en-2-yl)-2,3,3a,4,5,5a,5b,6,7,7a,8,11,11a,11b,12,13,13a,13b-octadecahydro-1H-cyclopenta[a]chrysen-9-yl)benzoic acid formation at 5 mg/kg, po administered via gavage by LC-MS/MS analysis; type: ADME, organism-based, Canis lupus familiaris
[2] = Drug metabolism in human plasma assessed as (2S,3S,4S,5R,6S)-6-[4-[(1R,3aS,5aR,5bR,7aR,11aS,11bR,13aR,13bR)-3a-[2-(1,1-dioxo-1,4-thiazinan-4-yl)ethylamino]-1-isopropenyl-5a,5b,8,8,11a-pentamethyl-1,2,3,4,5,6,7,7a,11,11b,12,13,13a,13b-tetradecahydrocyclopenta[a]chrysen-9-yl]benzoyl]oxy-3,4,5-trihydroxy-tetrahydropyran-2-carboxylic acid formation at 5 mg/kg, po administered via gavage by LC-MS/MS analysis; type: ADME, organism-based
[3] = Drug metabolism in cynomolgus monkey plasma assessed as mono-oxidation product formation at 5 mg/kg, po administered via gavage by LC-MS/MS analysis; type: ADME, organism-based, Macaca fascicularis
[4] = Drug metabolism in human plasma assessed as mono-oxidation product formation at 5 mg/kg, po administered via gavage by LC-MS/MS analysis; type: ADME, organism-based
[5] = Drug metabolism in cynomolgus monkey plasma assessed as (2S,3S,4S,5R,6S)-6-[4-[(1R,3aS,5aR,5bR,7aR,11aS,11bR,13aR,13bR)-3a-[2-(1,1-dioxo-1,4-thiazinan-4-yl)ethylamino]-1-isopropenyl-5a,5b,8,8,11a-pentamethyl-1,2,3,4,5,6,7,7a,11,11b,12,13,13a,13b-tetradecahydrocyclopenta[a]chrysen-9-yl]benzoyl]oxy-3,4,5-trihydroxy-tetrahydropyran-2-carboxylic acid formation at 5 mg/kg, po administered via gavage by LC-MS/MS analysis; type: ADME, organism-based, Macaca fascicularis
[6] = Drug metabolism in beagle dog plasma assessed as (2S,3S,4S,5R,6S)-6-[4-[(1R,3aS,5aR,5bR,7aR,11aS,11bR,13aR,13bR)-3a-[2-(1,1-dioxo-1,4-thiazinan-4-yl)ethylamino]-1-isopropenyl-5a,5b,8,8,11a-pentamethyl-1,2,3,4,5,6,7,7a,11,11b,12,13,13a,13b-tetradecahydrocyclopenta[a]chrysen-9-yl]benzoyl]oxy-3,4,5-trihydroxy-tetrahydropyran-2-carboxylic acid formation at 5 mg/kg, po administered via gavage by LC-MS/MS analysis; type: ADME, organism-based, Canis lupus familiaris
[7] = Drug metabolism in Sprague-Dawley rat plasma assessed as mono-oxidation product formation at 5 mg/kg, po administered via gavage by LC-MS/MS analysis; type: ADME, organism-based
[8] = Drug metabolism in Sprague-Dawley rat plasma assessed as (2S,3S,4S,5R,6S)-6-[4-[(1R,3aS,5aR,5bR,7aR,11aS,11bR,13aR,13bR)-3a-[2-(1,1-dioxo-1,4-thiazinan-4-yl)ethylamino]-1-isopropenyl-5a,5b,8,8,11a-pentamethyl-1,2,3,4,5,6,7,7a,11,11b,12,13,13a,13b-tetradecahydrocyclopenta[a]chrysen-9-yl]benzoyl]oxy-3,4,5-trihydroxy-tetrahydropyran-2-carboxylic acid formation at 5 mg/kg, po administered via gavage by LC-MS/MS analysis; type: ADME, organism-based
[9] = Drug metabolism in Sprague-Dawley rat plasma assessed as 4-((1R,3aS,5aR,5bR,7aR,11aS,11bR,13aR,13bR)-3a-amino-5a,5b,8,8,11a-pentamethyl-1-(prop-1-en-2-yl)-2,3,3a,4,5,5a,5b,6,7,7a,8,11,11a,11b,12,13,13a,13b-octadecahydro-1H-cyclopenta[a]chrysen-9-yl)benzoic acid formation at 5 mg/kg, po administered via gavage by LC-MS/MS analysis; type: ADME, organism-based
[10] = Drug metabolism in human plasma assessed as 4-((1R,3aS,5aR,5bR,7aR,11aS,11bR,13aR,13bR)-3a-amino-5a,5b,8,8,11a-pentamethyl-1-(prop-1-en-2-yl)-2,3,3a,4,5,5a,5b,6,7,7a,8,11,11a,11b,12,13,13a,13b-octadecahydro-1H-cyclopenta[a]chrysen-9-yl)benzoic acid formation at 5 mg/kg, po administered via gavage by LC-MS/MS analysis; type: ADME, organism-based
[11] = Drug metabolism in beagle dog plasma assessed as mono-oxidation product formation at 5 mg/kg, po administered via gavage by LC-MS/MS analysis; type: ADME, organism-based, Canis lupus familiaris
[12] = Drug metabolism in cynomolgus monkey plasma assessed as 4-((1R,3aS,5aR,5bR,7aR,11aS,11bR,13aR,13bR)-3a-amino-5a,5b,8,8,11a-pentamethyl-1-(prop-1-en-2-yl)-2,3,3a,4,5,5a,5b,6,7,7a,8,11,11a,11b,12,13,13a,13b-octadecahydro-1H-cyclopenta[a]chrysen-9-yl)benzoic acid formation at 5 mg/kg, po administered via gavage by LC-MS/MS analysis; type: ADME, organism-based, Macaca fascicularis

Measured: Drug metabolism

C=C(C)[C@@H]1CC[C@]2(NCCN3CCS(=O)(=O)CC3)CC[C@]3(C)[C@H](CC[C@@H]4[C@@]5(C)CC=C(c6ccc([14C](=O)O)cc6)C(C)(C)[C@@H]5CC[C@]43C)[C@@H]12
Metabolite_Detected: [1] | [2] | [3] | [4] | [5] | [6] | [7] | [8] | [9] | [10] | [11] | [12]
